This passage reports IC50 results from patent EP4559919A1, “TRICYCLIC-CONTAINING MACROCYCLIC COMPOUND AND USE THEREOF” (Medshine Discovery Inc., priority 2022, dated 2024).

The structures appear in SMILES notation. Where only a bound is given, the exact number is not on record here.

Test [1] concerns Ba/F3-EML4-ALK-G1202R/L1196M. Put plainly: Anti-proliferative activity test on Ba/F3 cell lines (CellTiter-Glo). The format is cell-based. To be noted: Ba/F3 EML4-ALK-G1202R-L1196M; 72 hours; read-out: Half maximal inhibitory concentration IC50 for cells Ba/F3-EML4-ALK-G1202R/L1196 M. In outline: (§1)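 Cells (2000/well) were exposed for 72 h at 37°C, 5% CO2, to an 8-point 3-fold series (1000× plate starting at 1 µM), with 0.1% DMSO final. Viability was read by CellTiter-Glo luminescence. Inhibition was normalised to DMSO (Max) and cell-free (Min) controls, and IC50 was taken from the curves.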

For the next test, the system named is Ba/F3-TEL-TRKB. Described as above. The format is cell-based. The note with it: Mus musculus, BaF3; 72 hours; read-out: Half maximal inhibitory concentration IC50 for cells Ba/F3-TEL-TRKB. The essentials:
as §1

The next test concerns the target T1, CYP1A2 (Homo sapiens, UniProt P05177).
T1 construct: Mixed human liver microsomes (HLM) purchased from Corning Inc; tissue Corning Inc; host or cells: pooled human liver microsomes
T1 sequence (P05177 1-516): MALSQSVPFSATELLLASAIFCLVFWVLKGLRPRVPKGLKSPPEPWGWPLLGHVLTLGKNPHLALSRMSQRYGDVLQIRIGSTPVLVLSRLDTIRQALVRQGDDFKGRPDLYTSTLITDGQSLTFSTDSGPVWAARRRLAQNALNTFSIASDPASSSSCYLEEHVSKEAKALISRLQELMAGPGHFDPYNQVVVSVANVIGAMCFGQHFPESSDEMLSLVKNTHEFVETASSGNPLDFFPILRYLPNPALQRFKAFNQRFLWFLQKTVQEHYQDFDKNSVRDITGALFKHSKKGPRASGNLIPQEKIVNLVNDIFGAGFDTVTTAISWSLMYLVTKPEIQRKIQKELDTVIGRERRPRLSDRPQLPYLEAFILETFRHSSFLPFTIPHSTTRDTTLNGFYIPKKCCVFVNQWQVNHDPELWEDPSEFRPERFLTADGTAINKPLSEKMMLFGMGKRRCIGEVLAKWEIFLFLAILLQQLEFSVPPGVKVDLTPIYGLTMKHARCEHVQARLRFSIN
Nature of the test: Cytochrome P450 isozyme inhibitory activity test (human liver microsomes). Format: in vitro ADME. The note with it: human liver microsomes 0.1 mg/mL. (Microsomes from liver hold many membrane-bound enzymes, among them those of drug oxidation.)

The target of another test is T2, CYP2C19 (Homo sapiens, UniProt P33261).
T2 construct: Mixed human liver microsomes (HLM) purchased from Corning Inc; tissue Corning Inc; host or cells: pooled human liver microsomes
T2 sequence (P33261 whole entry): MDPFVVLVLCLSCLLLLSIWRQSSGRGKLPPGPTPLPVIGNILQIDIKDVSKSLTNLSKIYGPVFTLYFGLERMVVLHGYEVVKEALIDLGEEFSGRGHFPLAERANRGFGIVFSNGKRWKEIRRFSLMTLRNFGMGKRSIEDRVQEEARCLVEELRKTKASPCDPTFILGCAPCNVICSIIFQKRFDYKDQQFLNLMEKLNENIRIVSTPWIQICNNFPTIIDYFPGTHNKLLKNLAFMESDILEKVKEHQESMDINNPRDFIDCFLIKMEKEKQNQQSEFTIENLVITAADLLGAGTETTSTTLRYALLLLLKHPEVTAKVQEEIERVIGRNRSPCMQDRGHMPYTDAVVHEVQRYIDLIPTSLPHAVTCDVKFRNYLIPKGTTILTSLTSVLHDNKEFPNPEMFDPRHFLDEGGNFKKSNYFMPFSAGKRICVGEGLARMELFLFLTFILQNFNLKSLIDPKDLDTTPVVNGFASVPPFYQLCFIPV
The test is described as above. The note with it: human liver microsomes 0.1 mg/mL. Format: in vitro ADME.

For a further test, the target named is T3, CYP3A4-M (Homo sapiens, UniProt P08684).
T3 construct: Mixed human liver microsomes (HLM) purchased from Corning Inc; tissue Corning Inc; host or cells: pooled human liver microsomes
T3 sequence (P08684 whole entry): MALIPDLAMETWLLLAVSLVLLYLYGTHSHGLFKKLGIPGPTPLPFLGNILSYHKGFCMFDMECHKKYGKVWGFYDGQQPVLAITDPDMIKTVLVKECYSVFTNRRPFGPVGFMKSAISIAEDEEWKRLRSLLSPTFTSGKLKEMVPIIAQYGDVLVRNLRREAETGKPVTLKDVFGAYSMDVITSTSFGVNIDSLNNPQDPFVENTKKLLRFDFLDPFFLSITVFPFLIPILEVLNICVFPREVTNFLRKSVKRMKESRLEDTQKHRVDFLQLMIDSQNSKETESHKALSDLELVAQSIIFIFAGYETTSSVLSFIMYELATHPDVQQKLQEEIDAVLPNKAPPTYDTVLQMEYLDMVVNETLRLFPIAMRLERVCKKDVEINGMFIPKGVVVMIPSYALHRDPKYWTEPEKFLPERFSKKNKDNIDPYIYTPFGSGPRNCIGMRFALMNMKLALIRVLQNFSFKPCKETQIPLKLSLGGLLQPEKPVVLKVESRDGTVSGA
Described as above. The format is in vitro ADME. To be noted: human liver microsomes 0.1 mg/mL.

For `Cc1nn2cc3c4nc2c1C(=O)NC1(CC1)COc1ccc(F)cc1CN4[C@H](C(F)F)CO3` [Compound 016], the IC50 in test [1] is 0.0125 µM; in the test with Ba/F3-TEL-TRKB, 0.0006 µM; at CYP1A2, greater than 50 µM; on CYP2C19, 22.7 µM; against CYP3A4-M, greater than 50 µM.
